Tests used:
[1] = test system: PNPLA3 mRNA; experiment: qRT-PCR of PNPLA3 mRNA in compound-treated mouse hepatocytes; type: cell-based; settings: mouse hepatocytes, 1 μM, normalized to ACTB
Protocol: Analysis of the fold changes in expression as measured by qRT-PCR were performed using the technique below. The control was DMSO, and the treatment was the selected compound (CPD). The internal control was GAPDH or B-Actin (or otherwise indicated), and the gene of interest is the target. First, the averages of the 4 conditions were calculated for normalization: DMSO:GAPDH, DMSO:Target, CPD: GAPDH, and CPD:Target. Next, the ΔCT of both control and treatment were calculated to normalize to internal control (GAPDH) using (DMSO:Target)−(DMSO:GAPDH)=ΔCT control and (CPD:Target)−(CPD: GAPDH)=ΔCT experimental. Then, the ΔΔCT was calculated by ΔCT experimental−ΔCT control. The Expression Fold Change (or Relative Quantification, abbreviated as RQ) was calculated by 2−(ΔΔCT) (2-fold expression change was shown by RNA-Seq results provided herein).
Compounds were tested at concentrations ranging from 0.01 μM to 50 μM. […] PNPLA3 levels were normalized to the level of a house keeping gene ACTB.

[2] = test system: PNPLA3 mRNA; experiment: qRT-PCR of PNPLA3 mRNA in human primary hepatic stellate cells; type: cell-based; settings: for Primary Stellate cells PNPLA3 (fold change in mRNA expression): 3 μM, relative to GAPDH; for Relative PNPLA3 mRNA levels RQ: hepatic stellate cells
[3] = test system: COL1A1 mRNA; experiment: qRT-PCR of COL1A1 mRNA in human primary hepatic stellate cells; type: cell-based; settings: for Primary Stellate cells COL1A1 (fold change in mRNA expression): 3 μM, relative to GAPDH; for Relative COL1A1 mRNA levels RQ: hepatic stellate cells
[4] = test system: PCSK9 mRNA; experiment: qRT-PCR of PCSK9 mRNA in primary hepatocytes; type: cell-based, human; settings: donor 4178, 3 μM, relative to GUSB
[5] = test system: PNPLA3 mRNA; experiment: qRT-PCR of PNPLA3 mRNA in compound-treated primary human hepatocytes; settings: for PNPLA3 mRNA expression level over time (in words) / PNPLA3 mRNA: 3 μM, normalized to GUSB; for PNPLA3 mRNA expression level over time (in words): 35 min to 20 hrs; for Primary Hepatocytes 4178 PNPLA3 (fold change in mRNA expression): donor 4178, 3 μM; for Primary Hepatocytes 4178 PNPLA3 (fold change in mRNA expression) / Primary Hepatocytes 4282 PNPLA3 (fold change in mRNA expression): relative to GUSB; for Primary Hepatocytes 4282 PNPLA3 (fold change in mRNA expression): donor 4282, 3 μM; for PNPLA3 mRNA: time point not stated; for Relative PINPLA3 mRNA: hepatocytes
[6] = test system: phosphorylated S6 (pS6/S6); experiment: Western blot of phosphorylated S6 in human hepatocytes; type: cell-based; settings: 3 μM; for phosphorylated S6 (pS6/S6) over time (in words): 35 min to 20 hrs, relative to DMSO control; for pS6/S6: human hepatocytes, mTORC1 pathway, time point not stated
Protocol: (§1) Levels of phosphorylated S6, AKT, and NDRG1 proteins were determined as compared to total S6, AKT, and NDRG1 protein. PNPLA3 mRNA expression was quantified and normalized to housekeeping gene GUSB.

[7] = test system: phosphorylated AKT (pAKT/AKT); experiment: Western blot of phosphorylated AKT in human hepatocytes; type: cell-based; settings: 3 μM; for phosphorylated AKT (pAKT/AKT) over time (in words): 35 min to 20 hrs, relative to DMSO control; for pAKT (473)/AKT: human hepatocytes, mTORC2 pathway, time point not stated
Protocol: as §1

[8] = test system: phosphorylated NDRG1 (pNDRG1/NDRG1); experiment: Western blot of phosphorylated NDRG1 in human hepatocytes; type: cell-based; settings: 3 μM, mTORC2 pathway, time point not stated
Protocol: as §1

[9] = test system: phosphorylated 4EBP1 (p4EBP1c (37/46)/4EBP1c); experiment: Western blot of phosphorylated 4EBP1 in human hepatocytes; type: cell-based; settings: 3 μM, mTORC1 pathway, time point not stated
[10] = test system: PNPLA3 expression; experiment: RNA-seq of compound-treated primary human hepatocytes; type: cell-based; settings: for Fold change (Log 2) vs untreated: PNPLA3 expression, RNA-seq
Protocol: Cryopreserved hepatocytes were cultured in plating media for 16 hours, transferred to maintenance media for 4 hours. Cultured on serum-free media for 2 hours, then a compound was added. The hepatocytes were maintained on the serum-free media for 16 hours prior to gene expression analysis.
Human hepatocytes cultured as described above were plated in 24-well format, adding 375,000 cells per well in a volume of 500 μl plating medium. Four hours before treatment, cells were washed with PBS and the medium was changed to either: fresh maintenance medium (complete) or modified maintenance medium.
Compound stocks were prepared at 1000× final concentration and added in a 2-step dilution to the medium to reduce risk of a compound precipitating out of solution when added to the cells, and to ensure reasonable pipetting volumes. One at a time, each compound was first diluted 10-fold in warm (about 37° C.) modified maintenance medium (initial dilution=ID), mixed by vortexing, and the ID was diluted 100-fold into the cell culture (e.g. 5.1 μl into 1 well of a 24-well plate containing 0.5 mL medium). The plate was mixed by carefully swirling and after all wells were treated and returned to the incubator overnight. If desired, separate plates/wells were treated with vehicle-only controls and/or positive controls. If using multi-well plates, controls were included on each plate. After about 18 hours, cells were harvested for further analysis, e.g., ChIP-seq, RNA-seq, ATAC-seq, etc.
The expression level of each gene was quantified with normalized FPKM (fragments per kilobase of exon per million mapped fragments). The differentially expressed genes were called using Cuffdiff v2.2.1 with q value<0.01 and log2 fold change>=1 or <=−1.
(§2) To identify small molecules that modulate PNPLA3, primary human hepatocytes were prepared as a monoculture, and at least one small molecule compound was applied to the cells.
(§3) RNA-seq was performed to determine the effects of the compounds on PNPLA3 expression in hepatocytes. Fold change was calculated by dividing the level of expression in the cell system that had been perturbed by the level of expression in an unperturbed system. Changes in expression having a p-value≤0.05 were considered significant.

[11] = test system: mouse hepatocytes; experiment: Cytotoxicity in mouse hepatocytes; type: cell-based; settings: 10 μM
[12] = test system: PNPLA5 expression; experiment: RNA-seq of compound-treated primary human hepatocytes, PNPLA5; type: cell-based
Protocol: as §2, §3

[13] = mTOR pathway inhibitors, 10 μM, human hepatocytes, qRT-PCR, mean of three replicates ± standard deviation

COc1ccc(-c2ccc3c(N4CCOC[C@@H]4C)nc(N4CCOC[C@@H]4C)nc3n2)cc1CO [AZD-8055]
Relative PNPLA3 mRNA levels [1]: 0.21 ± 0.11
Primary Stellate cells PNPLA3 (fold change in mRNA expression) [2]: 0.36
Relative PNPLA3 mRNA levels RQ ([2]; 0.01 μM): 0.38
Relative PNPLA3 mRNA levels RQ ([2]; 0.1 μM): 0.44
Relative PNPLA3 mRNA levels RQ ([2]; 1 μM): 0.45
Relative PNPLA3 mRNA levels RQ ([2]; 10 μM): 0.39
Primary Stellate cells COL1A1 (fold change in mRNA expression) [3]: 0.46
Relative COL1A1 mRNA levels RQ ([3]; 0.01 μM): 0.71
Relative COL1A1 mRNA levels RQ ([3]; 0.1 μM): 0.58
Relative COL1A1 mRNA levels RQ ([3]; 1 μM): 0.35
Relative COL1A1 mRNA levels RQ ([3]; 10 μM): 0.27
Primary Hepatocytes 4178 PCSK9 (fold change in mRNA expression) [4]: 0.68
Relative PNPLA3 mRNA levels [5, 13]: 0.52 ± 0.16

Cc1nc(NC(=O)N2CCC[C@H]2C(N)=O)sc1-c1ccnc(C(C)(C)C(F)(F)F)c1 [Alpelisib (BYL719), Alpelisib]
Primary Stellate cells PNPLA3 (fold change in mRNA expression) [2]: 0.94
Primary Stellate cells COL1A1 (fold change in mRNA expression) [3]: 1.16
Primary Hepatocytes 4178 PCSK9 (fold change in mRNA expression) [4]: 0.67
phosphorylated S6 (pS6/S6) over time (in words) [6]: increased at 2 hours, then decreased
pS6/S6 [6]: 1.11
phosphorylated AKT (pAKT/AKT) over time (in words) [7]: largely did not change
pAKT (473)/AKT [7]: 0.34
p-NDRG1/NDRG1 [8]: 1.11
p4EBP1c (37/46)#/4EBP1c [9]: 0.61
PNPLA3 mRNA expression level over time (in words) [5]: largely did not change
PNPLA3 mRNA expression level over time (in words) ([5]; listed as Alpenisib): did not lead to decreased PNPLA3 expression
Primary Hepatocytes 4178 PNPLA3 (fold change in mRNA expression) [5]: 0.80
Primary Hepatocytes 4282 PNPLA3 (fold change in mRNA expression) [5]: 0.69
PNPLA3 mRNA ([5]; human hepatocytes): 0.971

COc1nc(N)nc2c1ncn2[C@@H]1O[C@H](COP(=O)(N[C@@H](C)C(=O)OCC(C)(C)C)Oc2cccc3ccccc23)[C@@H](O)[C@@]1(C)O (stereo partly drawn) [BMS-986094]
Fold change (Log 2) vs untreated [10]: −0.69

CS(=O)(=O)N1CCc2c(-c3cnc(N)nc3)nc(N3CCOCC3)nc21 [CH5132799]
Primary Stellate cells PNPLA3 (fold change in mRNA expression) [2]: 0.56
Primary Stellate cells COL1A1 (fold change in mRNA expression) [3]: 0.81
Primary Hepatocytes 4178 PCSK9 (fold change in mRNA expression) [4]: 0.51
phosphorylated S6 (pS6/S6) over time (in words) [6]: decreased at 1 hour
pS6/S6 [6]: 0.06
phosphorylated AKT (pAKT/AKT) over time (in words) [7]: increased at 3 hours and decreased to pre-treatment levels at 4.5 hours
pAKT (473)/AKT [7]: 0.22
p-NDRG1/NDRG1 [8]: 0.47
p4EBP1c (37/46)#/4EBP1c [9]: 0.40
PNPLA3 mRNA expression level over time (in words) [5]: decreased levels of PNPLA3 expression after 3 hours
PNPLA3 mRNA expression level over time (in words) ([5]; listed as CH51332799): down regulated PNPLA3 gene expression
Primary Hepatocytes 4178 PNPLA3 (fold change in mRNA expression) [5]: 0.49
Primary Hepatocytes 4282 PNPLA3 (fold change in mRNA expression) [5]: 0.60
Relative PINPLA3 mRNA ([5]; 0.1 uM): 0.940
Relative PINPLA3 mRNA ([5]; 0.3 uM): 0.870
Relative PINPLA3 mRNA ([5]; 1 uM): 0.743
Relative PINPLA3 mRNA ([5]; 3 uM): 0.491
PNPLA3 mRNA ([5]; human hepatocytes): 0.511

CCNC(=O)Nc1ccc(-c2nc(N3CCOC[C@@H]3C)c3c(n2)C(C)(C)S(=O)(=O)C3)cc1 [CZ415]
Relative PNPLA3 mRNA levels [1]: 0.20 ± 0.11
Primary Stellate cells PNPLA3 (fold change in mRNA expression) [2]: 0.37
Relative PNPLA3 mRNA levels RQ ([2]; 0.01 μM): 0.87
Relative PNPLA3 mRNA levels RQ ([2]; 0.1 μM): 0.47
Relative PNPLA3 mRNA levels RQ ([2]; 1 μM): 0.31
Relative PNPLA3 mRNA levels RQ ([2]; 10 μM): 0.35
Primary Stellate cells COL1A1 (fold change in mRNA expression) [3]: 0.59
Relative COL1A1 mRNA levels RQ ([3]; 0.01 μM): 1.01
Relative COL1A1 mRNA levels RQ ([3]; 0.1 μM): 0.86
Relative COL1A1 mRNA levels RQ ([3]; 1 μM): 0.28
Relative COL1A1 mRNA levels RQ ([3]; 10 μM): 0.27
Primary Hepatocytes 4178 PCSK9 (fold change in mRNA expression) [4]: 0.66
Primary Hepatocytes 4178 PNPLA3 (fold change in mRNA expression) [5]: 0.60
Primary Hepatocytes 4282 PNPLA3 (fold change in mRNA expression) [5]: 0.70
Relative PNPLA3 mRNA levels [5, 13]: 0.62 ± 0.07

CO[C@H]1C[C@@H]2CC[C@@H](C)[C@@](O)(O2)C(=O)C(=O)N2CCCC[C@H]2C(=O)O[C@H]([C@H](C)C[C@@H]2CC[C@@H](OCCO)[C@H](OC)C2)CC(=O)[C@H](C)/C=C(\C)[C@@H](O)[C@@H](OC)C(=O)[C@H](C)C[C@H](C)/C=C/C=C/C=C/1C [Everolimus]
Relative PNPLA3 mRNA levels [1]: 0.31 ± 0.10
Primary Stellate cells PNPLA3 (fold change in mRNA expression) [2]: 0.36
Relative PNPLA3 mRNA levels RQ ([2]; 0.01 μM): 0.64
Relative PNPLA3 mRNA levels RQ ([2]; 0.1 μM): 0.47
Relative PNPLA3 mRNA levels RQ ([2]; 1 μM): 0.56
Relative PNPLA3 mRNA levels RQ ([2]; 10 μM): 0.44
Primary Stellate cells COL1A1 (fold change in mRNA expression) [3]: 0.93
Relative COL1A1 mRNA levels RQ ([3]; 0.01 μM): 1.07
Relative COL1A1 mRNA levels RQ ([3]; 0.1 μM): 1.01
Relative COL1A1 mRNA levels RQ ([3]; 1 μM): 1.12
Relative COL1A1 mRNA levels RQ ([3]; 10 μM): 1.19
Primary Hepatocytes 4178 PCSK9 (fold change in mRNA expression) [4]: 0.66
Primary Hepatocytes 4178 PNPLA3 (fold change in mRNA expression) [5]: 0.60
Primary Hepatocytes 4282 PNPLA3 (fold change in mRNA expression) [5]: 1.00
Relative PNPLA3 mRNA levels [5, 13]: 0.98 ± 0.17

CC(C)n1nc(-c2cc3cc(O)ccc3[nH]2)c2c(N)ncnc21 [PP242, Torkinib]
Relative PNPLA3 mRNA levels [1]: 0.44 ± 0.10
Relative PNPLA3 mRNA levels RQ ([2]; 0.01 μM): 1.07
Relative PNPLA3 mRNA levels RQ ([2]; 0.1 μM): 0.74
Relative PNPLA3 mRNA levels RQ ([2]; 1 μM): 0.39
Relative PNPLA3 mRNA levels RQ ([2]; 10 μM): 0.63
Relative COL1A1 mRNA levels RQ ([3]; 0.01 μM): 1.09
Relative COL1A1 mRNA levels RQ ([3]; 0.1 μM): 1.02
Relative COL1A1 mRNA levels RQ ([3]; 1 μM): 0.40
Relative COL1A1 mRNA levels RQ ([3]; 10 μM): 0.18
Relative PNPLA3 mRNA levels [5]: 0.50 ± 0.02

C1=C/COCc2cc(ccc2OCCN2CCCC2)Nc2nccc(n2)-c2cccc(c2)COC/1 [Pacritinib]
cytotoxicity / tolerability [11]: slight cytotoxicity

NS(=O)(=O)C#Cc1ccccc1 [Pifithrin-μ, 2-Phenylethynesulfonamide]
Fold change (Log 2) vs untreated [10]: −0.68

COc1cc(Nc2ncc(F)c(Nc3ccc4c(n3)N(COP(=O)([O-])[O-])C(=O)C(C)(C)O4)n2)cc(OC)c1OC.[Na+].[Na+] [R788, fostamatinib disodium hexahydrate]
Fold change (Log 2) vs untreated [10]: −1.38
Relative PNPLA3 mRNA levels ([5]; Syk pathway inhibitors, 10 μM, human hepatocytes, normalized to B2M, mean of three replicates ± standard deviation): 0.77 ± 0.02

CN1C(=O)c2sccc2N(C)c2nc(Nc3ccc(S(N)(=O)=O)cc3)ncc21 [XMU-MP-1]
Fold change (Log 2) vs untreated [10]: −0.66

CO[C@H]1C[C@@H]2CC[C@@H](C)[C@@](O)(O2)C(=O)C(=O)N2CCCC[C@H]2C(=O)O[C@H]([C@H](C)C[C@@H]2CC[C@@H](O)[C@H](OC)C2)CC(=O)[C@H](C)/C=C(\C)[C@@H](O)[C@@H](OC)C(=O)[C@H](C)C[C@H](C)/C=C/C=C/C=C/1C [rapamycin]
Primary Stellate cells PNPLA3 (fold change in mRNA expression) [2]: 0.49
Primary Stellate cells COL1A1 (fold change in mRNA expression) [3]: 1.43
Primary Hepatocytes 4178 PCSK9 (fold change in mRNA expression) [4]: 1.37
pS6/S6 [6]: 0.07
pAKT (473)/AKT [7]: 2.55
p-NDRG1/NDRG1 [8]: 1.76
p4EBP1c (37/46)#/4EBP1c [9]: 0.49
Primary Hepatocytes 4178 PNPLA3 (fold change in mRNA expression) [5]: 1.50
Primary Hepatocytes 4282 PNPLA3 (fold change in mRNA expression) [5]: 1.10
PNPLA3 mRNA ([5]; human hepatocytes): 1.2

Activin
PNPLA3 expression in the RNA-seq study (in words) [10]: best upregulators of PNPLA3 and PNPLA5
PNPLA5 expression in the RNA-seq study (in words) [12]: best upregulators of PNPLA3 and PNPLA5

B1: GDF2 (protein, UniProt Q9UK05 320-429, looked up)
Growth/differentiation factor …: SAGAGSHCQKTSLRVNFEDIGWDSWIIAPKEYEAYECKGGCFFPLADDVTPTKHAIVQTLVHLKFPTKVGKACCVPTKLSPISVLYKDDMGVPTLKYHYEGMSVAECGCR
PNPLA3 expression in the RNA-seq study (in words) [10]: best upregulators of PNPLA3 and PNPLA5
PNPLA5 expression in the RNA-seq study (in words) [12]: best upregulators of PNPLA3 and PNPLA5

Source: patent publication US20220107328A1, “METHODS OF TREATING LIVER DISEASES” (Camp4 Therapeutics Corporation, priority 2018, published 2022)
